{"source": "patent US8338382B2", "about": "“Method of treating impaired mitochondrial function” (priority 1997, dated 2012)", "origin": "cited, not measured here", "tested_on": "depressed patients", "details": "literature (Sabelli 2002, 2000)", "data": [{"smiles": "NCCc1ccccc1", "note": "[PEA, 2-Phenylethylamine]", "values": [{"measurement": "share of depressed patients in whom PEA is effective / controls depression", "value": 60, "unit": "%"}, {"measurement": "toxic effects, tolerance or abuse", "value": "no toxic effects, tolerance or abuse"}]}]}
